These results are taken from patent EP0531640B1, “Antibiotic LL-E19020 Gamma” (F. HOFFMANN-LA ROCHE AG, priority 1991, dated 1993).

What all share (format): cell-based
Assay [1] concerns Enterococcus spp. ARUM 87-41. The assay can be described thus: MIC by agar dilution. The conditions noted are these: Mueller-Hinton agar, 5% sheep blood, 18 hours, read-out: MINIMAL INHIBITORY CONCENTRATION
The procedure: (§1) The in vitro antibacterial activity of LL-E19020 Gamma is determined against a spectrum of gram positive and gram negative bacteria by a standard agar dilution method. Mueller-Hinton agar containing 5% sheep blood and two-fold decreasing concentrations of LL-E19020 Gamma is poured into petri dishes. The agar surfaces are inoculated with 1 to 5X10^4 colony forming units of bacteria by means of the Steers replicating device. The lowest concentration of antibiotic that inhibits growth of a bacterial strain after 18 hours incubation is recorded as the minimal inhibitory concentration for that strain.
(§2) • 1. Serial two-flow dilutions of drug are prepared in Mueller-Hinton broth in a range of 2560 µg/ml-0.15 µg/ml plus a solvent control. • 2. Two milliliters of drug dilution (10X) are added to sterile screw cap bottles to which 18 ml of Mueller-Hinton agar containing 5.6% defibrinated sheep blood is added. Final drug concentration ranges 256 µg/ml-0.015 µg/ml in agar containing 5% sheep blood. • 3. A few isolated colonies of each test organism are inoculated into 5 ml trypticase soy broth or brain heart infusion broth. The cultures are shaken at 35 °C. for 5 hours. • 4. Each culture is diluted 1:50 (10^-1.7) in Mueller-Hinton broth and applied to agar plates using a Steers replicator. Control plates should be seeded last to ensure that viable organisms are present throughout the procedure. Inoculated agar plates are allowed to stand undisturbed until the inoculum spots are completely absorbed. • 5. The plates are inverted and incubated at 35 °C. for 18 hours with CO2. • 6. The minimum inhibitory concentration (MIC) is taken as the lowest concentration of antimicrobial agent at which complete inhibition of antimicrobial agent at which complete inhibition occurs. A very fine, barely visible haze or a single colony is disregarded.
For orientation: Agar dilution tests growth on a series of plates holding different concentrations.

Assay [2] relates to Enterococcus spp. CHBM 88-60. The assay is described as follows: MIC by agar dilution. The conditions noted are these: Mueller-Hinton agar, 5% sheep blood, 18 hours, read-out: MINIMAL INHIBITORY CONCENTRATION
The procedure: as §1, §2

In assay [3] the test system is Enterococcus spp. CMC 83-120. The assay is described as follows: MIC by agar dilution. The conditions noted are these: Mueller-Hinton agar, 5% sheep blood, 18 hours, read-out: MINIMAL INHIBITORY CONCENTRATION
The procedure: as §1, §2

Assay [4] relates to Enterococcus spp. UCI 85-30. The assay is described as follows: MIC by agar dilution. The conditions noted are these: Mueller-Hinton agar, 5% sheep blood, 18 hours, read-out: MINIMAL INHIBITORY CONCENTRATION
The procedure: as §1, §2

Assay [5] has as its system Enterococcus spp. VGH 84-69. The assay is described as follows: MIC by agar dilution. The conditions noted are these: Mueller-Hinton agar, 5% sheep blood, 18 hours, read-out: MINIMAL INHIBITORY CONCENTRATION
The procedure: as §1, §2

Assay [6] has as its system Enterococcus spp. WRVA 88-33. The assay can be described thus: MIC by agar dilution. The conditions noted are these: Mueller-Hinton agar, 5% sheep blood, 18 hours, read-out: MINIMAL INHIBITORY CONCENTRATION
The procedure: as §1, §2

Assay [7] deals with Escherichia coli ATCC 25922. The assay can be described thus: MIC by agar dilution. The conditions noted are these: ATCC25922, Mueller-Hinton agar, 5% sheep blood, 18 hours, read-out: MINIMAL INHIBITORY CONCENTRATION
The procedure: as §1, §2

Assay [8] relates to Escherichia coli ATCC 35218. The assay is described as follows: MIC by agar dilution. The conditions noted are these: ATCC35218, 18 h, read-out: MINIMAL INHIBITORY CONCENTRATION
The procedure: as §1, §2

For assay [9], the system named is Klebsiella pneumoniae NEMC 87-271. The assay can be described thus: MIC by agar dilution. The conditions noted are these: NEMC87271, Mueller-Hinton agar, 5% sheep blood, 18 hours, read-out: MINIMAL INHIBITORY CONCENTRATION
The procedure:
as §1, §2

The test system of assay [10] is Pseudomonas aeruginosa 12-4-4 (MP). The assay is described as follows: MIC by agar dilution. The conditions noted are these: Mueller-Hinton agar, 5% sheep blood, 18 hours, read-out: MINIMAL INHIBITORY CONCENTRATION
The procedure:
as §1, §2

Assay [11] deals with Staphylococcus aureus ATCC 29213. The assay can be described thus: MIC by agar dilution. The conditions noted are these: ATCC29213, Mueller-Hinton agar, 5% sheep blood, 18 hours, read-out: MINIMAL INHIBITORY CONCENTRATION
The procedure:
as §1, §2

Assay [12] deals with Staphylococcus aureus CMC 83-131. The assay is described as follows: MIC by agar dilution. The conditions noted are these: CMC83131, Mueller-Hinton agar, 5% sheep blood, 18 hours, read-out: MINIMAL INHIBITORY CONCENTRATION
The procedure: as §1, §2

The test system of assay [13] is Staphylococcus aureus IVES 160. The assay is described as follows: MIC by agar dilution. The conditions noted are these: IVES160, Mueller-Hinton agar, 5% sheep blood, 18 hours, read-out: MINIMAL INHIBITORY CONCENTRATION
The procedure: as §1, §2

Assay [14] has as its system Staphylococcus aureus SMITH (MP). The assay is described as follows: MIC by agar dilution. The conditions noted are these: Mueller-Hinton agar, 5% sheep blood, 18 hours, read-out: MINIMAL INHIBITORY CONCENTRATION
The procedure:
as §1, §2

For assay [15], the system named is Staphylococcus epidermidis IVES 455. The assay is described as follows: MIC by agar dilution. The conditions noted are these: IVES455, Mueller-Hinton agar, 5% sheep blood, 18 hours, read-out: MINIMAL INHIBITORY CONCENTRATION
The procedure:
as §1, §2

Assay [16] has as its system Staphylococcus haemolyticus AVAH 88-1. The assay is described as follows: MIC by agar dilution. The conditions noted are these: AVAH881, Mueller-Hinton agar, 5% sheep blood, 18 hours, read-out: MINIMAL INHIBITORY CONCENTRATION
The procedure:
as §1, §2

Assay [17] deals with Streptococcus pneumoniae CHBM 88-75. The assay can be described thus: MIC by agar dilution. The conditions noted are these: CHBM8875, Mueller-Hinton agar, 5% sheep blood, 18 hours, read-out: MINIMAL INHIBITORY CONCENTRATION
The procedure: as §1, §2

In assay [18] the test system is Streptococcus pneumoniae SV-1 (MP). The assay can be described thus: MIC by agar dilution. The conditions noted are these: Mueller-Hinton agar, 5% sheep blood, 18 hours, read-out: MINIMAL INHIBITORY CONCENTRATION
The procedure:
as §1, §2

For assay [19], the system named is Streptococcus pyogenes AMCH 88-86. The assay is described as follows: MIC by agar dilution. The conditions noted are these: AMCH8886, Mueller-Hinton agar, 5% sheep blood, 18 hours, read-out: MINIMAL INHIBITORY CONCENTRATION
The procedure: as §1, §2

Another assay concerns gram negative bacteria. The assay can be described thus: MIC by agar dilution, summary for gram-negative bacteria. The conditions noted are these: 18 h; text summary: no gram-negative activity. The procedure:
as §1
as §2, with “Inoculated agar plates are allowed to stand undisturbed until the inoculum spots are completely absorbed. • 5. The plates are inverted and incubated at 35 °C. for 18 hours with CO2. • 6. The minimum inhibitory concentration (MIC) is taken as the lowest concentration of antimicrobial agent at which complete inhibition of antimicrobial agent at which complete inhibition occurs. A very fine, barely visible haze or a single colony is disregarded.” left out

The subject of assay [20] is staphylococci and enterococci. The assay can be described thus: MIC by agar dilution, summary for staphylococci and enterococci. The conditions noted are these: 18 h; text summary: poor to moderate activity vs staphylococci and enterococci. The procedure: as §1
as §2, with “Inoculated agar plates are allowed to stand undisturbed until the inoculum spots are completely absorbed. • 5. The plates are inverted and incubated at 35 °C. for 18 hours with CO2. • 6. The minimum inhibitory concentration (MIC) is taken as the lowest concentration of antimicrobial agent at which complete inhibition of antimicrobial agent at which complete inhibition occurs. A very fine, barely visible haze or a single colony is disregarded.” left out

Values after ≈ are worked out from the molar mass of the structure shown.

In the case of `C/C=C\C=C\C1OC(O)(C(COC2CC(OC)C(OC3CC(OC)C(OC4CC(OC)C(O)C(C)O4)C(C)O3)C(C)O2)C(=O)NC/C=C/C=C(\C)C(OC)C(C)C2CC(O)C(/C=C/C=C/C=C/C(=O)O)O2)C(OC(=O)Cc2ccc(O)cc2)C(O)C1(C)C` (stereo not drawn) [LL-E19020 Gamma], the MIC in [1] is 8 µg/mL (≈ 6.44 µM); in assay [2], 16 µg/mL (≈ 12.9 µM); in assay [3], 16 µg/mL (≈ 12.9 µM); in [4] it was 16 µg/mL (≈ 12.9 µM); in assay [5], 16 µg/mL (≈ 12.9 µM); in assay [6], 16 µg/mL (≈ 12.9 µM). The MIC in [7] was above 128 µg/mL; in assay [8] it was above 128 µg/mL; in assay [9], above 128 µg/mL; in assay [10], above 128 µg/mL; in assay [11], 128 µg/mL (≈ 103 µM); in assay [12] it was 64 µg/mL (≈ 51.5 µM). For the same molecule, the MIC in assay [13] came out at 32 µg/mL (≈ 25.8 µM); in assay [14], 128 µg/mL (≈ 103 µM); in [15] it was 16 µg/mL (≈ 12.9 µM); in assay [16] it was 64 µg/mL (≈ 51.5 µM); in assay [17], 16 µg/mL (≈ 12.9 µM); in assay [18], 0.12 µg/mL (≈ 0.0966 µM). Besides, the MIC in assay [19] is 0.5 µg/mL (≈ 0.402 µM); in the assay with gram negative bacteria, above 128 µg/mL; in assay [20] it was 8 to 128 µg/mL (≈ 6.44 to 103 µM).
